Where “and” joins values, the source holds several entries; their conditions need not be identical. Equal values may be shown once.

A short description of this experiment: In vitro binding affinity against alpha-2D adrenergic receptor of male Wistar rat.
With `Cc1cccc([C@H](C)c2cnc[nH]2)c1C` [4-[(1S)-1-(2,3-dimethylphenyl)ethyl]-1H-imidazole], the affinity corresponds to a Ki of 0.015 nM. For `Cc1csc(C)c1Cc1cnc[nH]1`, the Ki (as a rule, the equilibrium dissociation constant of an inhibitor or competing ligand from its target) was 0.1 nM.

For `Brc1csc(Cc2cnc[nH]2)c1Br`, the Ki came out at 0.07 nM.

As for `Cc1cc(Cc2cnc[nH]2)c(C)s1`, the Ki amounted to 0.69 nM. For `CCc1cscc1Cc1cnc[nH]1` the value was 0.29 nM. For `Cc1ccc(Cc2cnc[nH]2)s1` the value was 3.6 nM.

The compound `CCC(c1cnc[nH]1)c1sccc1C` (centres undefined) yielded a Ki of 8.3 nM.

With `Cc1csc(Cc2cnc[nH]2)c1C`, affinity was put at a Ki of 0.17 nM. The same measure for `CC(C)c1cc(Cc2cnc[nH]2)c(C(C)C)s1`: 12 nM; for `Cc1sccc1Cc1cnc[nH]1`: 0.44 nM; for `c1ncc(Cc2cc3c(s2)CCCC3)[nH]1`: 3.7 nM. The compound `CC(c1cnc[nH]1)c1cscc1Br` (centres undefined) had a Ki of 0.08 nM.

In turn, `CCC(c1cnc[nH]1)c1cscc1C` (centres undefined) displayed a Ki of 0.97 nM. Regarding `COC(c1cnc[nH]1)c1sccc1Br` (centres undefined), the inhibitory constant (Ki) is 39 nM. The same measure for `CCc1cscc1C(C)c1cnc[nH]1` (centres undefined): 0.28 nM; for `Cc1ccsc1C1(c2cnc[nH]2)CC1`: 1000 nM; for `c1ncc(Cc2ccsc2)[nH]1`: 3.1 nM.

Compound `CCc1cc(Cc2cnc[nH]2)c(CC)s1` gave a Ki of 0.4 nM. This Ki is about 7.8-fold lower than that of the compound before. For `c1ccc2c(Cc3cnc[nH]3)csc2c1` the value was 0.09 nM. `Cc1cscc1C(C)c1cnc[nH]1` (centres undefined) registered a Ki of 0.39 nM. For `COC(c1cnc[nH]1)c1cscc1C` (centres undefined) the value was 15.9 nM. For `CC(c1cnc[nH]1)c1scc(Br)c1Br` (centres undefined) the value was 0.43 nM; for `Cc1cscc1Cc1cnc[nH]1`, 0.47 nM; for `Cc1csc(C(C)c2cnc[nH]2)c1C` (centres undefined), 0.75 nM. On to `c1csc(Cc2cnc[nH]2)c1`, for which the affinity corresponds to a Ki of 8.7 nM. The same measure for `Cc1ccsc1Cc1cnc[nH]1`: 0.45 nM.

As to `Cc1ccsc1C(C)c1cnc[nH]1` (centres undefined), the inhibition constant Ki was 0.78 nM and 2.1 nM. The same measure for `Brc1cscc1Cc1cnc[nH]1`: 0.23 nM. For `c1ccc2sc(Cc3cnc[nH]3)cc2c1` the value was 1.1 nM; for `CCc1sccc1Cc1cnc[nH]1`, 0.07 nM; for `CC(c1cnc[nH]1)c1sccc1Br` (centres undefined), 0.96 nM and 0.18 nM. For `Cc1sccc1C(C)c1cnc[nH]1` (centres undefined) the value was 2.3 nM; for `Clc1cc(Cc2cnc[nH]2)c(Cl)s1`, 0.088 nM. Compound `Brc1ccsc1Cc1cnc[nH]1` showed a Ki of 0.35 nM. Compared with the last compound, the Ki is about 4-fold higher.

(Values after BindingDB's records for doi:10.1021/jm0003891 (The R. W. Johnson Pharmaceutical Research Institute, 2001).)
